One assay deals with steroid 5α-reductase. The note with it: cited from earlier work; for Ki: read-out: K1; for reversibility of inhibition (Reversible / Irreversible): printed in parentheses beside K1; for mode of inhibition (in words): literature statement in text.
In assay [1] the target is T1, human steroid 5α-reductase (Homo sapiens, UniProt P31213).
T1 construct: using tissue from hyperplastic human prostates; from tissue; host or cells: frozen human prostates (hyperplastic), washed particulate fraction from differential centrifugation
T1 sequence (P31213 1-254): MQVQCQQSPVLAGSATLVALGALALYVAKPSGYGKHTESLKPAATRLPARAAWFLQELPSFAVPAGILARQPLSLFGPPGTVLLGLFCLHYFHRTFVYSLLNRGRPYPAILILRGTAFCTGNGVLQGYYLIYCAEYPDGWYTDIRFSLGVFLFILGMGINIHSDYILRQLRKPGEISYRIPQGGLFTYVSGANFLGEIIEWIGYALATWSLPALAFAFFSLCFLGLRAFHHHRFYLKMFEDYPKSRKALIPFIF
Briefly: Inhibition of human prostatic steroid 5α-reductase ([14C]-testosterone conversion, Dixon analysis). The format is biochemical. The method, then:
In determining potency in inhibiting the human enzyme, the following procedure was employed:
The resulting pellet was suspended in 20 mM potassium phosphate buffer, pH 6.5, containing 20% glycerol, 1 mM dithiothreitol, and 50 μM NADPH. The suspended particulate solution was stored at -80° C.
To each tube was added buffer, 20 μl of 10 mM NADPH and an aliquot of prostatic particulate solution to a final volume of 1.0 ml of 50 mM sodium citrate, pH 5.0. After incubating the solution at 37° C. for 20 to 30 minutes the reaction was quenched by the addition of 4 ml ethyl acetate and 0.25 μmol each of testosterone, dihydrotestosterone, androstanediol, and androstanedione as carriers. […] The radiochemical content in the bands of the substrate and the products was determined with a BIOSCAN Imaging Scanner (Bioscan, Inc., Washington, D.C.). The percent of recovered radiolabel converted to product was calculated, from which enzyme activity was determined. […]
The experimentally obtained data was computer fitted to a linear function by plotting the reciprocal of the enzyme activity (1/velocity) against the variable inhibitor concentration (Dixon, M. (1953), Biochem. J., 55, 170). Assuming that the steroidal inhibitor is a competitive inhibitor against testosterone, a value for the inhibition constant (Ki) can be calculated from equation 1: […]

Where [2] appears, read: 5α-reductase inhibitors, literature reference given per compound.

Each structure is given as a SMILES string. Read-outs that look alike come from different tables or passages of the source.

For the compound `C[C@]12CC[C@H]3[C@@H](CCC4=CC(=O)CC[C@@]43C)[C@@H]1CC[C@@H]2C(=O)O` [(1)], the Ki on steroid 5α-reductase (setting [2]) is 1.1 µM. For the same compound, in the assay with steroid 5α-reductase, the “reversibility of inhibition (Reversible / Irreversible)” value is on record as “Reversible”.

`CC(=O)C1CCC2C3CC=C=CC(=O)CCC(=O)C3CCC12C` (centres unmarked) [(2)]: the Ki on steroid 5α-reductase (setting [2]) was 1 µM. Also, the “reversibility of inhibition (Reversible / Irreversible)” value in the assay on steroid 5α-reductase is reported as “Irreversible”.

Consider `CC(CO)[C@H]1CC[C@H]2[C@@H]3CC[C@H]4C(=[N+]=[N-])C(=O)CC[C@]4(C)[C@H]3CC[C@]12C` (some centres unmarked) [(3)], for which, in the assay with steroid 5α-reductase, the “mode of inhibition (in words)” value is “potent, time-dependent inhibitor of steroid 5α-reductase” and the “reversibility of inhibition (Reversible / Irreversible)” value is given as “Irreversible”. For the same compound, the Ki at steroid 5α-reductase (unit inferred, Blohm, et al., 1980) is 0.035 µM.

As to `CCN(CC)C(=O)[C@H]1CC[C@H]2[C@@H]3CC[C@H]4N(C)C(=O)CC[C@]4(C)[C@H]3CC[C@]12C` [(4)], the Ki on steroid 5α-reductase (setting [2]) was 0.005 µM. Further, the “reversibility of inhibition (Reversible / Irreversible)” value in the assay with steroid 5α-reductase is “Reversible”.

Take `C=C1C[C@@H]2[C@H](CC[C@@]3(C)[C@H]2CC[C@]3(OC(C)=O)C(C)=O)[C@@]2(C)CCC(=O)C=C12` [(5)]: on steroid 5α-reductase (setting [2]), the Ki is 1.25 µM. Further, in the assay with steroid 5α-reductase, the “mode of inhibition (in words)” value is on record as “time dependent inactivator of steroid 5α-reductase” and the “reversibility of inhibition (Reversible / Irreversible)” value is “Irreversible”.

Regarding `CC(C)N(C(=O)[C@H]1CC[C@H]2[C@@H]3CC=C4C=C(P(=O)(O)O)CC[C@]4(C)[C@H]3CC[C@]12C)C(C)C` [Example 1, 17β-(N,N-diisopropylcarboxamide)-androst-3,5-diene-3phosphonic acid], in assay [1] (hyperplastic human prostate particulate, pH 5.0, 37° C., 20 to 30 minutes, competitive inhibition against testosterone assumed, read-out: Ki (inhibition constant of human prostatic steroid 5α-reductase)), the Ki is 0.015 to 0.04 µM.

In turn, `CC(C)N(C(=O)[C@H]1CC[C@H]2[C@@H]3CCC4=CC(P(=O)(O)O)=CC[C@]4(C)[C@H]3CC[C@]12C)C(C)C` [Example 30, 17β-(N,N-diisopropylcarboxamide)-androst-2,4-diene-3-phosphonic acid] yielded a Ki in assay [1] of 0.16 µM.

The record behind these values is patent US4946834A, “Phosphonic acid substituted steroids as steroid 5α-reductase inhibitors” (priority 1988, dated 1990).
